The values that follow come from article PMC8946265, “Withanolide-Type Steroids from Physalis nicandroides Inhibit HIV Transcription” (Journal of Natural Products, 2021).

Read-outs that look alike come from different tables or passages of the source. Where only a bound is given, the exact number is not on record here.

One data set is described as follows: in vitro. Particulars: human.
Data set [1] has as its system X4 recombinant HIV (NL4.3-Ren). Briefly: microbe, parasite or virus in culture.
For data set [2], the system named is HIV transcription (pNL4.3-Luc). The data set can be described thus: cells. In kind it is cell-based, HIV-1. Particulars: for IC50: Human immunodeficiency virus 1, MT2, 48 h, read-out: IC50 viral transcription; for SI HIV transcription/HIV infection (specificity index): IC50 transcription / IC50 HIV infection; for effect on HIV transcription (in words): MT-2 cells transfected with NL4.3-Luc, 0.7 to 100 μM.

Data set [3] concerns X4 recombinant HIV (NL4.3-Ren). To be noted: for SI: selectivity index (CC50/IC50): CC50 MT-2 / IC50 HIV NL4.3-Ren.
In data set [4] the test system is VSV pseudotyped HIV (VSV-HIV).
The subject of data set [5] is VSV pseudotyped HIV (VSV-HIV). Briefly: microbe, parasite or virus in culture. To be noted: Vesicular stomatitis virus, MT2, 48 h, read-out: IC50 VSV-HIV.
[6] abbreviates: Human immunodeficiency virus 1, MT2, 48 h, read-out: IC50 (CI95%; R^2) anti-HIV activity, MT-2 cells, NL4.3-Ren, 48 h, mean of at least three independent experiments.
[7] abbreviates: Human immunodeficiency virus 1, MT2, read-out: IC50 HIV, MT-2 cells, HIV infection, values repeated from Table 3 (more decimals).

A word on the IC50: it is the concentration needed to halve the response being measured. `CC(=O)O[C@H]1C[C@@](O)([C@H](C)[C@H]2CC(C)=C(C)C(=O)O2)[C@@]2(C)CC[C@H]3[C@@H](C[C@H]4O[C@]45CC=CC(=O)[C@]35C)[C@@]12O` [Compound 5, physagulide I]: the CC50 in “in vitro” is > 100 µM. For the same compound, the IC50 in data set [1] (setting [6]) was > 100 µM.
On to `C[C@H](Cn1cnc2c(N)ncnc21)OCP(=O)(O)O` [TFV, tenofovir, reference compound], for which the CC50 in the data set “in vitro” is > 100 µM. For the same compound, the results for the IC50 in data set [1] (setting [6]) and in data set [1] (setting [7]) were 1.7 µM and 1.69 µM, respectively.
Regarding `CC(=O)O[C@H]1[C@@H]2O[C@]2([C@H](C)[C@H]2CC(C)=C(C)C(=O)O2)[C@@]2(C)CC[C@H]3[C@@H](C[C@H]4O[C@]45[C@@H](O)C=CC(=O)[C@]35C)[C@@]12O` [Compound 13, physagulin F], the IC50 in data set [2] was 1.14 µM; in data set [1] (setting [6]), < 2 µM; in data set [1] (setting [7]) it was 1.01 µM; in data set [5], 2.67 µM. For the same compound, in data set [2], the “SI HIV transcription/HIV infection (specificity index)” value worked out at 1.13. Besides, the “effect on HIV transcription (in words)” value in data set [2] was “inhibited HIV transcription”. Also, in data set [3], the “SI: selectivity index (CC50/IC50)” value was 15.5. Besides, the “SI VSV-HIV/HIV (specificity index)” value in data set [4] turned out to be 2.66. Further, the CC50 in the data set “in vitro” amounted to 15.2 µM.
For `C=C1C(=O)O[C@@H]([C@@H](C)[C@]2(O)C[C@H](OC(C)=O)[C@]3(O)[C@@H]4C[C@H]5O[C@]56CC=CC(=O)[C@]6(C)[C@H]4CC[C@@]32C)C[C@@]1(C)O` [Compound 1, 15α-acetoxy-5β,6β-epoxy-14β,17β,24β-trihydroxy-1-oxo-witha-2,25(27)-dien-26,22-olide], the “SI: selectivity index (CC50/IC50)” value in data set [3] was >8. For the same compound, the CC50 in “in vitro” was > 100 µM. Besides, the IC50 in data set [1] (setting [6]) is 12.4 µM.
For the compound enfuvirtide, the half-inhibitory concentration (IC50) in data set [3] (read-out: IC50 HIV, MT-2 cells, HIV infection, values repeated from Table 3 (more decimals)) was determined as 0.015 µM. In addition, in data set [4], the “activity as VSV-HIV inhibitor (in words)” value is reported as “not active”. For the same compound, in data set [4] (VSV pseudotyped (VSV-, 48 h)), the IC50 was > 1 µM and the “SI VSV-HIV/HIV (specificity index)” value is >66.67.
As to `CC(=O)O[C@H]1C=C([C@H](C)[C@H]2CC(C)=C(C)C(=O)O2)[C@@]2(C)CC[C@H]3[C@@H](C[C@H]4O[C@]45CC=CC(=O)[C@]35C)[C@@]12O` [Compound 7, physagulin A], the 50% inhibitory concentration (IC50) in data set [2] is 1.97 µM; in data set [1] (setting [6]), < 2 µM; in data set [1] (setting [7]), 1.94 µM; in data set [5] it was 3.2 µM. Besides, the “SI HIV transcription/HIV infection (specificity index)” value in data set [2] was found to be 1.02. Besides, in data set [2], the “effect on HIV transcription (in words)” value was “inhibited HIV transcription”. Also, in data set [3] (IC50 ratio versus compound 5), the “fold more potent (antiviral effect) than 17β-hydroxy-withanolide 5” value was > 50 fold. In addition, in data set [3] (IC50 ratio versus compound 8), the “fold more potency (anti-HIV) than dihydroxy compound 8” value stood at 35.7 fold. Moreover, in data set [3] (IC50 ratio versus compound 9), the “fold more potency (anti-HIV) than halohydrin 9” value is reported as 4.7 fold. In addition, the “SI VSV-HIV/HIV (specificity index)” value in data set [4] was 1.64. The compound further returned a CC50 in the data set “in vitro” of 16 µM.
With `CC(=O)O[C@H]1C=C([C@H](C)[C@H]2CC(C)=C(C)C(=O)O2)[C@@]2(C)CC[C@H]3[C@@H](C[C@@H](O)[C@@]4(Cl)CC=CC(=O)[C@]34C)[C@]12O` [Compound 9, physagulin B], the “SI: selectivity index (CC50/IC50)” value in data set [3] was >11.2. The CC50 in “in vitro” was > 100 µM. For the same compound, the half-maximal inhibitory concentration (IC50) in data set [1] (setting [6]) was 8.9 µM.
On to `CC(=O)O[C@H]1[C@@H]2O[C@]2([C@H](C)[C@H]2CC(C)=C(C)C(=O)O2)[C@@]2(C)CC[C@H]3[C@@H](C[C@@H](O)[C@@]4(O)CC=CC(=O)[C@]34C)[C@@]12O` [Compound 12, physagulin C], for which the “SI: selectivity index (CC50/IC50)” value in data set [3] is reported as >4.7. The CC50 in “in vitro” was > 100 µM. Moreover, the IC50 in data set [1] (setting [6]) was found to be 21.1 µM.
Regarding `CC(=O)O[C@H]1[C@@H]2O[C@]2([C@H](C)[C@H]2CC(C)=C(C)C(=O)O2)[C@@]2(C)CC[C@H]3[C@@H](C[C@@H](O)[C@]45C=C[C@H](OO4)C(=O)[C@]35C)[C@@]12O` [Compound 4, 15α-acetoxy-16β,17β-epoxy-6β,14β-dihydroxy-1-oxo-2α,5α-dioxy-witha-3,24-dien-26,22-olide], the “SI: selectivity index (CC50/IC50)” value in data set [3] is >1.4. For the same compound, the CC50 in “in vitro” was > 100 µM. For the same compound, in data set [1] (setting [6]), the IC50 turned out to be 72.7 µM.
On the same counts, the results for `C=C1C(=O)O[C@@H]([C@@H](C)[C@]2(O)C[C@H](OC(C)=O)[C@]3(O)[C@@H]4C[C@H]5O[C@]56CC=CC(=O)[C@]6(C)[C@H]4CC[C@@]32C)C[C@]1(C)O` [Compound 2, 15α-acetoxy-5β,6β-epoxy-14β,17β,24α-trihydroxy-1-oxo-witha-2,25(27)-dien-26,22-olide] are >5.3, > 100 µM and 18.7 µM.
For the compound `CC(=O)O[C@H]1C=C([C@H](C)[C@H]2CC(C)=C(C)C(=O)O2)[C@@]2(C)CC[C@H]3[C@@H](C[C@@H](O)[C@@]4(O)CC=CC(=O)[C@]34C)[C@]12O` [Compound 8, withaminimin], in data set [3], the “SI: selectivity index (CC50/IC50)” value was >1.5. Moreover, the CC50 in “in vitro” was > 100 µM. Moreover, the 50% inhibitory concentration (IC50) in data set [1] (setting [6]) stood at 67.9 µM.
Turning to `CC(=O)O[C@H]1C=C([C@H](C)[C@H]2CC(C)=C(C)C(=O)O2)[C@@]2(C)CC[C@H]3[C@@H](C[C@@H](O)[C@]45C=C[C@H](OO4)C(=O)[C@]35C)[C@@]12O` [Compound 3, 15α-acetoxy-6β,14β-dihydroxy-1-oxo-2α,5α-dioxy-witha-3,16,24-trien-26,22-olide], in data set [3], the “SI: selectivity index (CC50/IC50)” value is recorded as >1.3. In the data set “in vitro”, the CC50 is > 100 µM. In addition, the IC50 in data set [1] (setting [6]) was 76.1 µM.
In the same order, the values of `CC(=O)O[C@H]1C[C@H]([C@H](C)[C@H]2CC(C)=C(C)C(=O)O2)[C@@]2(C)CC[C@H]3[C@@H](C[C@@H](O)[C@@]4(O)CC=CC(=O)[C@]34C)[C@@]12O` [Compound 10, physagulin J] are >3.1, > 100 µM and 32.7 µM.
